{"source": "patent US20080287443A1", "about": "“Treatment of Subgingival Pocket Infections” (priority 2005, published 2008)", "key": {"[1]": {"details": "human, in vivo", "source_text": "(§1) In this example delmopinol was used as a rinse to treat a patient who had been cared for over a 2-year period. They had been diagnosed with Morbus Crohn (Crohn's Disease) and with oral complications presenting as severe gingival lesions and swollen gingiva. They had been treated with antibiotics (Zithromax) in the past to control their oral infections and routinely used Chlorhexidine 0.12% rinse solution to control the recolonization of pathogens. Chlorhexidine is used routinely for the control of gingival infection/inflammations as an adjunct to other oral hygiene measures. There are, however side-effects with Chlorhexidine, i.e. staining of teeth, loss of taste and a burning sensation. The alcohol content in the Chlorhexidine solution may also cause some problems for patients. The potential burning sensation was in this case problematic and the patient was not compliant with Chlorhexidine rinsing. The treatment routine was changed and they were asked to rinse with 0.2% w/v delmopinol once daily for 14 days (instead of chlorhexidine). They had been given a professional cleaning of their teeth prior to rinsing with Delmopinol but no systemic antibiotics were prescribed. Zithromax was used 6 months prior the current treatment. The following clinical observations were made: 1."}, "Treponema denticola": {"test_system": "Treponema denticola", "experiment": "Level of key pathogen in sub-gingival samples", "type": "in vivo", "details": "sub-gingival samples after 14 day rinse; FIG. 2", "source_text": "(§2) FIG. 2 illustrates the reduction of Treponema denticola and Aggregatibacter actinomycetemcomitans after the 14 day course of delmopinol treatment. The treatment routine was changed and they were asked to rinse with 0.2% w/v delmopinol once daily for 14 days (instead of chlorhexidine). They had been given a professional cleaning of their teeth prior to rinsing with Delmopinol but no systemic antibiotics were prescribed. Zithromax was used 6 months prior the current treatment. In addition, a reduction of some key pathogens were found."}, "[2]": {"test_system": "Aggregatibacter actinomycetemcomitans", "experiment": "Level of key pathogen in sub-gingival samples", "type": "in vivo", "details": "sub-gingival samples after 14 day rinse; FIG. 2", "source_text": "as §2"}, "gingival inflammation": {"test_system": "gingival inflammation", "experiment": "Clinical observation of gingival inflammation after delmopinol rinsing", "type": "in vivo, human", "details": "one patient, 0.2% w/v rinse once daily for 14 days", "source_text": "as §1, with “2.” for “1.”"}, "Porphyromonas gingivalis": {"test_system": "Porphyromonas gingivalis", "experiment": "Level of key pathogen in sub-gingival samples", "type": "in vivo", "details": "sub-gingival samples after 14 day rinse", "source_text": "as §2, with “The” for “FIG. 2 illustrates the reduction of Treponema denticola and Aggregatibacter actinomycetemcomitans after the 14 day course of delmopinol treatment. The”"}, "Tannerella forsythia": {"test_system": "Tannerella forsythia", "experiment": "Level of key pathogen in sub-gingival samples", "type": "in vivo", "details": "sub-gingival samples after 14 day rinse", "source_text": "as §2, with “The” for “FIG. 2 illustrates the reduction of Treponema denticola and Aggregatibacter actinomycetemcomitans after the 14 day course of delmopinol treatment. The”"}, "[3]": {"test_system": "total bacterial load from sub-gingival samples", "experiment": "Total bacterial load in sub-gingival samples from four sub-gingival pockets", "type": "in vivo, human", "details": "pockets 13, 23, 37 and 42; after 2 week rinse vs before; FIG. 1", "source_text": "FIG. 1 illustrates the sub-gingival reduction in bacterial load, in four selected sub-gingival pockets, after a 14 day course of delmopinol rinsing (once daily); and The treatment routine was changed and they were asked to rinse with 0.2% w/v delmopinol once daily for 14 days (instead of chlorhexidine). They had been given a professional cleaning of their teeth prior to rinsing with Delmopinol but no systemic antibiotics were prescribed. Zithromax was used 6 months prior the current treatment."}}, "note": "Entries after “also recorded” stand apart in the source; their conditions may differ."}
{"smiles": "CCCC(CCC)CCCC1COCCN1CCO", "note": "(stereo not shown) [delmopinol, 3-(4-propyl-heptyl)-4-(2-hydroxyethyl)morpholine]", "values": [{"measurement": "side-effects reported by the patient (staining, burning sensation)", "setting": "[1]", "value": "no staining or burning sensation"}, {"measurement": "level of Treponema denticola", "setting": "Treponema denticola", "value": "significantly reduced"}, {"measurement": "level of Aggregatibacter actinomycetemcomitans", "setting": "[2]", "value": "significantly reduced; also recorded: eliminated"}, {"measurement": "extent of gingival inflammation (bleeding on probing, gingival swelling, ulcerations)", "setting": "gingival inflammation", "value": "clinically reduced"}, {"measurement": "level of Porphyromonas gingivalis", "setting": "Porphyromonas gingivalis", "value": "not reduced"}, {"measurement": "level of Tannerella forsythia", "setting": "Tannerella forsythia", "value": "not reduced"}, {"measurement": "total bacterial load from sub-gingival samples", "setting": "[3]", "value": "significant reduction"}]}
